Target: hKIF18A (1-374) (Homo sapiens (Human), UniProt Q8NI77)
Experiment: Inhibition of KIF18A microtubule-dependent ATPase activity (ADP-Glo)
Type: biochemical
Details: 4 nM hKIF18A (1-374)
Method: Test compounds were plated in a 3× dilution scheme in a 384-well plate. Assay buffer: 80 mM PIPES (pH 6.9), 1 mM MgCl2, 75 mM KCl, 1 mM EGTA, 1 mM DTT, 0.01% BSA, 0.005% Tween-20, 1 μM Taxol in H2O. […] After incubation at room temperature for 30 min, 2.5 μL of microtubule mix was added [0.2 mg/mL pre-formed microtubules, 2.0 mM ATP in assay buffer], the plate was centrifuged for 30 s and then incubated at 28° C. for 60 min. 5 μL of Promega® ADP-Glo Max R1 was added, the plate was centrifuged for 30 s, and the mixture incubated for 4 h at room temperature. 10 μL of Promega® ADP-Glo Max R2 was added, the plate centrifuged for 30 s, and incubated for 60 min at room temperature. Luminescence was measured with an Envision plate reader, and % Inhibition was calculated for each well as: ([max−min]−[test−min])/[max−min]. IC50 values were calculated from concentration vs. % Inhibition data via a four-parameter variable slope model.

Chain of hKIF18A (1-374) (Q8NI77 1-374): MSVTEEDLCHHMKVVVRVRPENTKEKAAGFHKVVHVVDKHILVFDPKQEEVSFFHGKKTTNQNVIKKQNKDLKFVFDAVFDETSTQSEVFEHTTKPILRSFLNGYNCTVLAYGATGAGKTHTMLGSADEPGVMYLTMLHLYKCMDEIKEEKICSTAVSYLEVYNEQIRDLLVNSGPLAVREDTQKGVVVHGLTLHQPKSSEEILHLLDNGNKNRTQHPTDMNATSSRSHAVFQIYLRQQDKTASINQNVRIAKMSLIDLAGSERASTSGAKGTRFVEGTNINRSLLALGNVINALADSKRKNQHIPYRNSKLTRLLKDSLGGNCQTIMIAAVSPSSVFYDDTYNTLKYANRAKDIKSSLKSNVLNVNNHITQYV

Row | Compound | IC50 [nM]
1 | CS(=O)(=O)Nc1ccc(-c2cnc(-c3cccc(N4CCOCC4)n3)[nH]2)c(N2CCC3(CC2)CC3)c1 [Compound 27, N-(4-(2-(6-morpholinopyridin-2-yl)-1H-imidazol-5-yl)-3-(6-azaspiro[2.5]octan-6-yl)phenyl)methanesulfonamide] | > 3000
2 | Cc1cc(-c2cnc(-c3ccc(NS(C)(=O)=O)cc3N3CCC4(CC3)CC4)[nH]2)nc(N2CCC(F)(F)CC2)n1 [Compound 26, N-(4-(5-(2-(4,4-difluoropiperidin-1-yl)-6-methylpyrimidin-4-yl)-1H-imidazol-2-yl)-3-(6-azaspiro[2.5]octan-6-yl)phenyl)methanesulfonamide] | 44
3 | CCS(=O)(=O)Nc1ccc(-n2cc(-c3ccc(F)c(N4CCC(F)(F)CC4)n3)nn2)c(N2CCC3(CC2)CC3)c1 [Compound 148, N-(4-(4-(6-(4,4-difluoropiperidin-1-yl)-5-fluoropyridin-2-yl)-1H-1,2,3-triazol-1-yl)-3-(6-azaspiro[2.5]octan-6-yl)phenyl)ethanesulfonamide] | 31
4 | CS(=O)(=O)Nc1ccc(-c2nnc(-c3cccc4c3OCCC4)[nH]2)c(N2CCC3(CC2)CC3)c1 [Compound 3, N-(4-(5-(chroman-8-yl)-4H-1,2,4-triazol-3-yl)-3-(6-azaspiro[2.5]octan-6-yl)phenyl)methanesulfonamide] | 280
5 | CS(=O)(=O)Nc1ccc(-n2cc(-c3cccc(N4CCC(F)(F)CC4)n3)nn2)c(N2CCCCCC2)c1 [Compound 52, N-(3-(azepan-1-yl)-4-(4-(6-(4,4-difluoropiperidin-1-yl)pyridin-2-yl)-1H-1,2,3-triazol-1-yl)phenyl)methanesulfonamide] | 18
6 | CS(=O)(=O)Nc1ccc(-n2cc(-c3nc(N4CCC(F)(F)CC4)ns3)nn2)c(N2CCC3(CC2)CC3)c1 [Compound 135, N-(4-(4-(3-(4,4-difluoropiperidin-1-yl)-1,2,4-thiadiazol-5-yl)-1H-1,2,3-triazol-1-yl)-3-(6-azaspiro[2.5]octan-6-yl)phenyl)methanesulfonamide] | 150
7 | O=S(=O)(CCO)Nc1ccc(-c2cn(-c3ccc(F)c(N4CC5CC5C4)n3)nn2)c(N2CCC3(CC2)CC3)c1 (stereo not drawn) [Compound 142, N-(4-(1-(6-(3-azabicyclo[3.1.0]hexan-3-yl)-5-fluoropyridin-2-yl)-1H-1,2,3-triazol-4-yl)-3-(6-azaspiro[2.5]octan-6-yl)phenyl)-2-hydroxyethane-1-sulfonamide] | 26
8 | O=S(=O)(CCO)Nc1ccc(-n2cc(-c3ccn(C4CCC(F)(F)CC4)n3)nn2)c(N2CCCCC2)c1 [Compound 76, N-(4-(4-(1-(4,4-difluorocyclohexyl)-1H-pyrazol-3-yl)-1H-1,2,3-triazol-1-yl)-3-(piperidin-1-yl)phenyl)-2-hydroxyethane-1-sulfonamide] | 29
9 | CS(=O)(=O)Nc1ccc(-n2cc(-c3cccc4c3OC3(CCCCC3)O4)nn2)c(N2CCC3(CC2)CC3)c1 [Compound 128, N-(3-(6-azaspiro[2.5]octan-6-yl)-4-(4-(spiro[benzo[d][1,3]dioxole-2,1′-cyclohexan]-4-yl)-1H-1,2,3-triazol-1-yl)phenyl)methanesulfonamide] | 98
10 | CS(=O)(=O)Nc1ccc(-c2nc(-c3cccc(N4CCOCC4)n3)no2)c(N2CCC3(CC2)CC3)c1 [Compound 163, N-(4-(3-(6-morpholinopyridin-2-yl)-1,2,4-oxadiazol-5-yl)-3-(6-azaspiro[2.5]octan-6-yl)phenyl)methanesulfonamide] | 3600
11 | Cc1ncc(-c2cn(-c3ccc(NS(=O)(=O)CCO)cc3N3CCC4(CC3)CC4)nn2)nc1C1=CCCC1 [Compound 161, N-(4-(4-(6-(cyclopent-1-en-1-yl)-5-methylpyrazin-2-yl)-1H-1,2,3-triazol-1-yl)-3-(6-azaspiro[2.5]octan-6-yl)phenyl)-2-hydroxyethane-1-sulfonamide] | 63
12 | CS(=O)(=O)Nc1ccc(-c2ncc(-c3cccc(N4CC(F)(F)C4)n3)[nH]2)c(N2CCC3(CC2)CC3)c1 [Compound 33, N-(4-(5-(6-(3,3-difluoroazetidin-1-yl)pyridin-2-yl)-1H-imidazol-2-yl)-3-(6-azaspiro[2.5]octan-6-yl)phenyl)methanesulfonamide] | 36
13 | Cc1cc(-c2cn(-c3ccc(NS(=O)(=O)CCO)cc3N3CCC4(CC3)CC4)nn2)nc(N2C[C@@H](F)[C@H](F)C2)c1 [Compound 115, N-(4-(4-(6-((3R,4R)-3,4-difluoropyrrolidin-1-yl)-4-methylpyridin-2-yl)-1H-1,2,3-triazol-1-yl)-3-(6-azaspiro[2.5]octan-6-yl)phenyl)-2-hydroxyethane-1-sulfonamide] | 44
14 | CS(=O)(=O)Nc1ccc(-n2cc(-c3cccc(N4CCC(F)(F)CC4)n3)cn2)c(N2CCC3(CC2)CC3)c1 [Compound 17, N-(4-(4-(6-(4,4-difluoropiperidin-1-yl)pyridin-2-yl)-1H-pyrazol-1-yl)-3-(6-azaspiro[2.5]octan-6-yl)phenyl)methanesulfonamide] | 29
15 | CCS(=O)(=O)Nc1ccc(-n2cc(-c3ccc(F)c(S(=O)(=O)NC(C)(C)C)c3)nn2)c(N2CCC3(CC2)CC3)c1 [Compound 120, N-(tert-butyl)-5-(1-(4-(ethylsulfonamido)-2-(6-azaspiro[2.5]octan-6-yl)phenyl)-1H-1,2,3-triazol-4-yl)-2-fluorobenzenesulfonamide] | 19
16 | CCOC(=O)CS(=O)(=O)Nc1ccc(-c2nnc(-c3cccc(N4CCC(F)(F)CC4)n3)[nH]2)c(N2CCC3(CC2)CC3)c1 [Compound 7, ethyl 2-(N-(4-(5-(6-(4,4-difluoropiperidin-1-yl)pyridin-2-yl)-4H-1,2,4-triazol-3-yl)-3-(6-azaspiro[2.5]octan-6-yl)phenyl)sulfamoyl)acetate] | 83
17 | Cc1cc(-c2cn(-c3ccc(NS(=O)(=O)C4CC4)cc3N3CCC4(CC3)CC4)nn2)nc(C(O)C2CCCC2)c1 (stereo not drawn) [Compound 139, N-(4-(4-(6-(cyclopentyl(hydroxy)methyl)-4-methylpyridin-2-yl)-1H-1,2,3-triazol-1-yl)-3-(6-azaspiro[2.5]octan-6-yl)phenyl)cyclopropanesulfonamide] | 40
18 | O=S(=O)(CCO)Nc1ccc(-n2cc(-c3csc(N4CCC(F)(F)CC4)n3)nn2)c(N2CCCCC2)c1 [Compound 86, N-(4-(4-(2-(4,4-difluoropiperidin-1-yl)thiazol-4-yl)-1H-1,2,3-triazol-1-yl)-3-(piperidin-1-yl)phenyl)-2-hydroxyethane-1-sulfonamide] | 27

Stronger by IC50, values ahead:

Row | IC50 [nM] | Compound
19 | 17 | Cc1cc(-c2cn(-c3ccc(NS(=O)(=O)CCO)cc3N3CCC4(CC3)CC4)nn2)nc(N2CCC(F)(F)CC2)c1 [Compound 48, N-(4-(4-(6-(4,4-difluoropiperidin-1-yl)-4-methylpyridin-2-yl)-1H-1,2,3-triazol-1-yl)-3-(6-azaspiro[2.5]octan-6-yl)phenyl)-2-hydroxyethane-1-sulfonamide]
20 | 7.1 | Cc1cc(-c2cn(-c3ccc(NS(=O)(=O)CCO)cc3N3CCCCCC3)nn2)nc(N2CCC(F)(F)CC2)n1 [Compound 75, N-(3-(azepan-1-yl)-4-(4-(2-(4,4-difluoropiperidin-1-yl)-6-methylpyrimidin-4-yl)-1H-1,2,3-triazol-1-yl)phenyl)-2-hydroxyethane-1-sulfonamide]
21 | 6.5 | CS(=O)(=O)Nc1ccc(-n2cc(-c3cccc(N4CC(F)(F)C4)n3)nn2)c(N2CCC3(CC2)CC3)c1 [Compound 60, N-(4-(4-(6-(3,3-difluoroazetidin-1-yl)pyridin-2-yl)-1H-1,2,3-triazol-1-yl)-3-(6-azaspiro[2.5]octan-6-yl)phenyl)methanesulfonamide]
22 | 11 | CC(CO)S(=O)(=O)Nc1ccc(-n2cc(-c3cccc(N4CCC(F)(F)CC4)n3)nn2)c(N2CCC3(CC2)CC3)c1 (stereo not drawn) [Compound 85, N-(4-(4-(6-(4,4-difluoropiperidin-1-yl)pyridin-2-yl)-1H-1,2,3-triazol-1-yl)-3-(6-azaspiro[2.5]octan-6-yl)phenyl)-1-hydroxypropane-2-sulfonamide]
23 | 12 | Cc1cc(-c2cn(-c3ccc(NS(=O)(=O)CCO)cc3N3CCC4(CC3)CC4)nn2)nc(N2CCCC2)n1 [Compound 98, 2-hydroxy-N-(4-(4-(6-methyl-2-(pyrrolidin-1-yl)pyrimidin-4-yl)-1H-1,2,3-triazol-1-yl)-3-(6-azaspiro[2.5]octan-6-yl)phenyl)ethane-1-sulfonamide]
24 | 16 | CS(=O)(=O)Nc1ccc(-n2cc(-c3ccn(C4CCC(F)(F)CC4)n3)nn2)c(N2CCC3(CC2)CC3)c1 [Compound 41, N-(4-(4-(1-(4,4-difluorocyclohexyl)-1H-pyrazol-3-yl)-1H-1,2,3-triazol-1-yl)-3-(6-azaspiro[2.5]octan-6-yl)phenyl)methanesulfonamide]
25 | 16 | Cc1cc(-c2cn(-c3ccc(NS(=O)(=O)CCO)cc3N3CCC4(CC3)CC4)nn2)nc(N2CCC(F)C2)n1 (stereo not drawn) [Compound 102, N-(4-(4-(2-(3-fluoropyrrolidin-1-yl)-6-methylpyrimidin-4-yl)-1H-1,2,3-triazol-1-yl)-3-(6-azaspiro[2.5]octan-6-yl)phenyl)-2-hydroxyethane-1-sulfonamide]
26 | 2.4 | O=S(=O)(CCO)Nc1ccc(-n2cc(-c3ccc(C(O)C4CCCC4)o3)nn2)c(N2CCC3(CC2)CC3)c1 (single isomer, unassigned) [Compound 51a]
27 | 3.1 | O=S(=O)(CCO)Nc1ccc(-n2cc(-c3ccc(C(O)C4CCCC4)o3)nn2)c(N2CCC3(CC2)CC3)c1 (single isomer, unassigned) [Compound 51b]

— patent US20230382889A1 (Volastra Therapeutics, Inc., priority 2022, published 2023)
